# Assay results published in patent publication US12410164B2, “Heterocyclic compounds and medical use thereof” (FONDAZIONE TELETHON, priority 2018, dated 2025).
# Biological target: F508del-CFTR (Homo sapiens, UniProt P13569, DEL508-508)
# Experiment: HS-YFP kinetic fluorescence (iodide quenching rate) assay in CFBE41o− cells
# Assay type: cell-based
# Design: expressed in transfected cells; host or cells: CFBE41o- cells with expression of F508del-CFTR and HS-YFP (generated as in Sondo et al. 2011)
# Conditions: Table 1; compound at 10 μM plus VX-809; (QRTOT − QRVX)/QRVX, HS-YFP assay
# Description: CFBE41o- cells, with expression of F508del-CFTR and halogen-sensitive fluorescent protein, were generated as previously described (Sondo E, et al. Am J Physiol. 2011, 301, […]-[…]). For the test, the cells were seeded in 96-well microplates using a culture medium consisting of DMEM and Ham's F12 (1:1) supplemented with 10% foetal bovine serum. After 24 hours from seeding, the cells were treated for another 24 hours with the test compounds dissolved in the culture medium at the desired concentrations. As a negative control, the solvent of the compounds (dimethyl sulfoxide, DMSO) dissolved in the medium with the same dilution ratio (final percentage of DMSO:0.1-0.2%) was used. As a positive control, the corrector VX-809 (Selleck Chemicals, […]) was used at a concentration of 1 μM. After treatment, the medium with the compounds was removed and the cells were stimulated with forskolin (Sigma-Aldrich, F6886) 20 μM plus genistein (Sigma-Aldrich, G6649) 50 μM (in 60 μl of PBS saline) to maximally activate the CFTR channels present in the membrane. In a microplate reader (FLUOstar-Omega, BMG) the fluorescence of the cells in each well was read for 14 seconds, with an injection of 165 μl of a iodide-enriched saline (modified PBS where NaCl, 137 mM, has been replaced with the same concentration of NaI). The iodide transport activity in each well was evaluated by subtraction of the background fluorescence (measured in a well without cells), subsequent normalization with respect to the initial fluorescence and finally by interpolation of the fluorescence quenching phase with an exponential function that allows the derivation of the maximum slope (quenching rate, QR). The activity of the synthesized compounds was initially evaluated on the CFBE41o- cell line with expression of the mutated F508del-CFTR protein described above (Sondo E, et al. Am J Physiol. 2011, 301, […]-[…]). For this purpose, a functional assay based on the fluorescent YFP protein sensitive to halides, HS-YFP, was used (Galietta L J, et al. J Biol Chem. 2001, 276, 19723-19728). The fluorescence of the HS-YFP protein is turned off by iodide. Therefore, if exposed to a solution containing iodide, cells with HS-YFP expression show a quenching speed of the fluorescence which depends on the presence and activity of anionic channels. Under control conditions, the mutated CFTR protein presents a serious defect of stability and maturation, so it remains trapped in the endoplasmic reticulum not reaching the cell surface in enough quantity. In the HS-YFP-based assay, this defect results in a low anion transport capacity and therefore in a low quenching rate (QR). Treatment for a prolonged time (e.g. 24 hours) with a corrector determines an improvement in protein maturation with an increase in the number of CFTR channels present in the membrane and therefore an increase in the flux of iodide and QR. In a first phase, the authors screened about 200 heterocyclic molecules with various nitrogenated tricyclic scaffolds. Conditions previously described have been used for screening (Sondo E, et al. Am J Physiol. 2011, 301, […]-[…]) and reported herein in the Materials and Methods section. A threshold equal to the average value plus three times the standard deviation of the QR of wells without compounds (only DMSO in the culture medium) was used as a criterion for the selection of active compounds.
# F508del-CFTR, sequence (P13569 with tags, fused parts or gaps DEL508-508): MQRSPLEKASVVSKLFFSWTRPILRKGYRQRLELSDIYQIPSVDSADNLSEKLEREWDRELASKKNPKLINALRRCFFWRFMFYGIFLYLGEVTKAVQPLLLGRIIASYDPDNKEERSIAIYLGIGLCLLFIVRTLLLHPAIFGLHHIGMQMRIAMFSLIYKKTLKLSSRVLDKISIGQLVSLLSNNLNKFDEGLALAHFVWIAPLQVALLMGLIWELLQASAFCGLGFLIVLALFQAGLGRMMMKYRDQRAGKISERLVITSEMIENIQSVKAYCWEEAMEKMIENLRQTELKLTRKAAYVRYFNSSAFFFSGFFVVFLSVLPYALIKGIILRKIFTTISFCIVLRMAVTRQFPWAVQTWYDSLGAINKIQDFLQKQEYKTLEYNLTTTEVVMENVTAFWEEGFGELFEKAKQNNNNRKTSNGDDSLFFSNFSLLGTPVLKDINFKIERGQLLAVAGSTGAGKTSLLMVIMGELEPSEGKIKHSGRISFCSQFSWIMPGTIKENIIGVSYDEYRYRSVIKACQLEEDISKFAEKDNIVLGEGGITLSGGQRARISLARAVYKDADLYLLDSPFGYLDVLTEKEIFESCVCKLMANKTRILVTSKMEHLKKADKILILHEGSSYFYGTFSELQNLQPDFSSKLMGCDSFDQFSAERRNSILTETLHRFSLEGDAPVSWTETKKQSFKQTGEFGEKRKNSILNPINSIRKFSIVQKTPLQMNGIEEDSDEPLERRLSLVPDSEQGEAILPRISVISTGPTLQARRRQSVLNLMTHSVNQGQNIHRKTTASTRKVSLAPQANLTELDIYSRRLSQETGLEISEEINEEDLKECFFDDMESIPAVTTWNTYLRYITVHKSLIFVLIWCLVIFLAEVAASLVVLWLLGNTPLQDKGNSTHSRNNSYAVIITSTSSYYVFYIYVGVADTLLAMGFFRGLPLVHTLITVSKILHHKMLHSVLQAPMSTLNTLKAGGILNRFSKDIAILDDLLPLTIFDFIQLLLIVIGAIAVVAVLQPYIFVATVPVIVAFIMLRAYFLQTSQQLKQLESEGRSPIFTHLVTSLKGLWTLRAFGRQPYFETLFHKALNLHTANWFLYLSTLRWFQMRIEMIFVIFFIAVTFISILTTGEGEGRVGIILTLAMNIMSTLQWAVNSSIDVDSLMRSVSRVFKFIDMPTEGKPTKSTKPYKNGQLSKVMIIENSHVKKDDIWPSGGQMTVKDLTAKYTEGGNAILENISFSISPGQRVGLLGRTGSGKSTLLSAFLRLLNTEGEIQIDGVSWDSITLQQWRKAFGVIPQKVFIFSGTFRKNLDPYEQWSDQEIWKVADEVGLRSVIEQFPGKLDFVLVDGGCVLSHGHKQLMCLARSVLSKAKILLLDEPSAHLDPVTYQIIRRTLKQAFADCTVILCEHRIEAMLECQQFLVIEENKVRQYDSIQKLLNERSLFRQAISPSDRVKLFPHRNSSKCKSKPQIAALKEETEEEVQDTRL
row,SMILES,AI (%) additivity index [%]
1,"Cc1ccc(Cn2c(C(=O)O)cc3c2-c2[nH]c(=O)c(S(=O)(=O)c4ccccc4)cc2CC3)cc1 [PP078, 7-(Benzenesulfonyl)-1-[(4-methylphenyl)methyl]-8-oxo-4,5,8,9-tetrahydro-1H-pyrrolo[3,2-h]quinoline-2-carboxylic acid]",37
2,"Cc1cccc(Cn2c(C(=O)NC3CC3)cc3c2-c2[nH]c(=O)c(S(=O)(=O)c4ccccc4)cc2CC3)c1 [PP084, 7-(Benzenesulfonyl)-N-cyclopropyl-1-[(3-methylphenyl)methyl]-8-oxo-4,5,8,9-tetrahydro-1H-pyrrolo[3,2-h]quinoline-2-carboxamide]",10
3,"Cc1cccc(Cn2c(C(N)=O)cc3c2-c2[nH]c(=O)c(S(=O)(=O)c4ccccc4)cc2CC3)c1 [PP082, 7-(Benzenesulfonyl)-1-[(3-methylphenyl)methyl]-8-oxo-4,5,8,9-tetrahydro-1H-pyrrolo[3,2-h]quinoline-2-carboxamide]",31
4,"Cc1cccc(Cn2c(C(=O)OC(C)C)cc3c2-c2[nH]c(=O)c(S(=O)(=O)c4ccccc4)cc2CC3)c1 [PP103, Propan-2-yl 7-(benzenesulfonyl)-1-[(3-methylphenyl)methyl]-8-oxo-4,5,8,9-tetrahydro-1H-pyrrolo[3,2-h]quinoline-2-carboxylate]",284
5,"CCOC(=O)c1cc2c(n1Cc1ccc(C)cc1C)-c1[nH]c(=O)c(S(=O)(=O)c3ccccc3)cc1CC2 [PP021, Ethyl 7-(benzenesulfonyl)-1-[(2,4-dimethylphenyl)methyl]-8-oxo-4,5,8,9-tetrahydro-1H-pyrrolo[3,2-h]quinoline-2-carboxylate]",40
6,"CCOC(=O)c1cc2c(n1Cc1ccc(Cl)cc1)-c1[nH]c(=O)c(S(=O)(=O)c3ccccc3)cc1CC2 [PP017, Ethyl 1-(4-chlorobenzyl)-8-oxo-7-(phenylsulfonyl)-4,5,8,9-tetrahydro-1H-pyrrolo[3,2-h]quinoline-2-carboxylate]",203
7,"CCOC(=O)c1c(Br)c2c(n1Cc1ccc(C(F)(F)F)cc1)-c1[nH]c(=O)c(S(=O)(=O)c3ccccc3)cc1CC2 [PP071, Ethyl 7-(benzenesulfonyl)-3-bromo-8-oxo-1-{[4-(trifluoromethyl)phenyl]methyl}-4,5,8,9-tetrahydro-1H-pyrrolo[3,2-h]quinoline-2-carboxylate]",35
8,"Cc1ccc(Cn2c(C(=O)O)cc3c2-c2[nH]c(=O)c(S(=O)(=O)c4ccccc4)cc2CC3)cc1C [PP094, 7-(Benzenesulfonyl)-1-[(3,4-dimethylphenyl)methyl]-8-oxo-4,5,8,9-tetrahydro-1H-pyrrolo[3,2-h]quinoline-2-carboxylic acid]",47
9,"CCOC(=O)c1c(Br)c2c(n1Cc1ccc(Cl)cc1)-c1[nH]c(=O)c(S(=O)(=O)c3ccccc3)cc1CC2 [PP029, Ethyl 3-bromo 1-(4-chlorobenzyl)-8-oxo-7-(phenylsulfonyl)-4,5,8,9-tetrahydro-1H-pyrrolo[3,2-h]quinoline-2-carboxylate]",46
10,"CCOC(=O)c1cc2c(n1CCCN(C)C)-c1[nH]c(=O)c(S(=O)(=O)c3ccccc3)cc1CC2 [PP075, Ethyl 7-(benzenesulfonyl)-1-[3-(dimethylamino)propyl]-8-oxo-4,5,8,9-tetrahydro-1H-pyrrolo[3,2-h]quinoline-2-carboxylate]",34
11,"COC(=O)c1cc2c(n1Cc1ccccc1C)-c1[nH]c(=O)c(S(=O)(=O)c3ccccc3)cc1CC2 [PP020, Methyl 1-(2-methylbenzyl)-8-oxo-7-(phenylsulfonyl)-4,5,8,9-tetrahydro-1H-pyrrolo[3,2-h]quinoline-2-carboxylate]",33
12,"Cc1cccc(Cn2c(C(=O)OC(C)C)c(Br)c3c2-c2[nH]c(=O)c(S(=O)(=O)c4ccccc4)cc2CC3)c1 [PP104, Propan-2-yl 7-(benzenesulfonyl)-3-bromo-1-[(3-methylphenyl)methyl]-8-oxo-4,5,8,9-tetrahydro-1H-pyrrolo[3,2-h]quinoline-2-carboxylate]",374
13,"CC(C)OC(=O)c1c(Br)c2c(n1Cc1ccc(F)cc1)-c1[nH]c(=O)c(S(=O)(=O)c3ccccc3)cc1CC2 [PP108, Propan-2-yl 7-(benzenesulfonyl)-3-bromo-1-[(4-fluorophenyl)methyl]-8-oxo-4,5,8,9-tetrahydro-1H-pyrrolo[3,2-h]quinoline-2-carboxylate]",257

# Same assay, conditions: Table 1a; compound at 10 μM plus VX-809; (QRTOT − QRVX)/QRVX
row,SMILES,AI additivity index [%]
1,"CCOC(=O)c1c(Br)c2ccc3cc(S(=O)(=O)c4ccccc4)c(=O)[nH]c3c2n1Cc1ccc(C)cc1 [13 (PP057), Ethyl 7-(benzenesulfonyl)-3-bromo-1-[(4-methylphenyl)methyl]-8-oxo-8,9-dihydro-1H-pyrrolo[3,2-h]quinoline-2-carboxylate]",272
2,"CCOC(=O)c1cc2ccc3cc(S(=O)(=O)c4ccccc4)c(=O)[nH]c3c2n1Cc1ccc(C)cc1 [14 (PP058), Ethyl 1-(4-methylbenzyl)-8-oxo-7-(phenylsulfonyl)-8,9-dihydro-1H-pyrrolo[3,2-h]quinoline-2-carboxylate]",177

# Same assay, conditions: Table 2; compound at 10 μM plus VX-809; (QRTOT − QRVX)/QRVX
row,SMILES,AI additivity index [%]
1,"CCOC(=O)c1cc2c(n1Cc1ccc(C)cc1)-c1[nH]c(=O)c(S(=O)(=O)c3ccccc3)cc1CCC2 [PP048, Ethyl 8-(benzenesulfonyl)-1-[(4-methylphenyl)methyl]-9-oxo-1,4,5,6,9,10-hexahydropyrrolo[3′,2′:6,7]cyclohepta[1,2-b]pyridine-2-carboxylate]",22

# Same assay, conditions: Table 3; compound at 10 μM plus VX-809; (QRTOT-QRVX)/QRVX
row,SMILES,AI additivity index [%]
1,"CCOC(=O)c1cc2c(n1Cc1ccc(C)c(C)c1)-c1nc(NS(=O)(=O)c3ccccc3)ncc1CC2 [SVQ13, Ethyl 2-[(benzenesulfonyl)amino]-9-[(3,4-dimethylphenyl)methyl]-6,9-dihydro-5H-pyrrolo[3,2-h]quinazoline-8-carboxylate]",86
2,"CCOC(=O)c1cc2c(n1Cc1cccc(C)c1)-c1nc(NS(=O)(=O)c3ccccc3)ncc1CC2 [SVQ11, Ethyl 2-[(benzenesulfonyl)amino]-9-[(3-methylphenyl)methyl]-6,9-dihydro-5H-pyrrolo[3,2-h]quinazoline-8-carboxylate]",151

# Same assay, conditions: Table 4; compound at 10 μM plus VX-809; (QRTOT − QRVX)/QRVX
row,SMILES,AI (%) additivity index [%]
1,"CCOC(=O)c1ccc2n1CCCc1cc(S(=O)(=O)c3ccccc3)c(=O)[nH]c1-2 [QZN5, Ethyl 3-(benzenesulfonyl)-2-oxo-1,5,6,7-tetrahydro-2H-pyrido[2,3-c]pyrrolo[1,2-a]azepine-9-carboxylate]",19
2,"CCOC(=O)c1c(Br)cc2n1CCCc1cc(S(=O)(=O)c3ccccc3)c(=O)[nH]c1-2 [QZN6, Ethyl 3-(benzenesulfonyl)-10-bromo-2-oxo-1,5,6,7-tetrahydro-2H-pyrido[2,3-c]pyrrolo[1,2-a]azepine-9-carboxylate]",136
3,"CC(C)OC(=O)c1ccc2n1CCCc1cc(S(=O)(=O)c3ccccc3)c(=O)[nH]c1-2 [QZN13, Propan-2-yl 3-(benzenesulfonyl)-2-oxo-1,5,6,7-tetrahydro-2H-pyrido[2,3-c]pyrrolo[1,2-a]azepine-9-carboxylate]",8

# Same assay, conditions: Table 6; compound at 10 μM plus VX-809; (QRTOT-QRVX)/QRVX
row,SMILES,AI (%) additivity index [%]
1,"CCOC(=O)c1nn(Cc2ccc(C)c(C)c2)c2c1CCc1cc(S(=O)(=O)c3ccccc3)c(=O)[nH]c1-2 [PZ7, Ethyl 7-(benzenesulfonyl)-1-[(3,4-dimethylphenyl)methyl]-8-oxo-4,5,8,9-tetrahydro-1H-pyrazolo[4,3-h]quinoline-3-carboxylate]",104

# Same assay, conditions: relative to the analogue
row,SMILES,structure-activity comparison of corrector potency/activity
1,"CCOC(=O)c1c(Br)c2ccc3cc(S(=O)(=O)c4ccccc4)c(=O)[nH]c3c2n1Cc1ccc(C)cc1 [13 (PP057), Ethyl 7-(benzenesulfonyl)-3-bromo-1-[(4-methylphenyl)methyl]-8-oxo-8,9-dihydro-1H-pyrrolo[3,2-h]quinoline-2-carboxylate]",Increased activity
